{"source": "patent US20140127235A1", "about": "“TARGETING HK alpha FOR CONTROLLING BLOOD PRESSURE AND REGULATING ELECTROLYTE BALANCE” (UNIVERSITY OF FLORIDA RESEARCH FOUNDATION, INC., priority 2011, published 2014)", "origin": "cited, not measured here", "key": {"[1]": {"biological_target": "HKα1-containing H^+,K^+-ATPases (Homo sapiens, UniProt P20648)", "sequence (P20648 whole entry)": "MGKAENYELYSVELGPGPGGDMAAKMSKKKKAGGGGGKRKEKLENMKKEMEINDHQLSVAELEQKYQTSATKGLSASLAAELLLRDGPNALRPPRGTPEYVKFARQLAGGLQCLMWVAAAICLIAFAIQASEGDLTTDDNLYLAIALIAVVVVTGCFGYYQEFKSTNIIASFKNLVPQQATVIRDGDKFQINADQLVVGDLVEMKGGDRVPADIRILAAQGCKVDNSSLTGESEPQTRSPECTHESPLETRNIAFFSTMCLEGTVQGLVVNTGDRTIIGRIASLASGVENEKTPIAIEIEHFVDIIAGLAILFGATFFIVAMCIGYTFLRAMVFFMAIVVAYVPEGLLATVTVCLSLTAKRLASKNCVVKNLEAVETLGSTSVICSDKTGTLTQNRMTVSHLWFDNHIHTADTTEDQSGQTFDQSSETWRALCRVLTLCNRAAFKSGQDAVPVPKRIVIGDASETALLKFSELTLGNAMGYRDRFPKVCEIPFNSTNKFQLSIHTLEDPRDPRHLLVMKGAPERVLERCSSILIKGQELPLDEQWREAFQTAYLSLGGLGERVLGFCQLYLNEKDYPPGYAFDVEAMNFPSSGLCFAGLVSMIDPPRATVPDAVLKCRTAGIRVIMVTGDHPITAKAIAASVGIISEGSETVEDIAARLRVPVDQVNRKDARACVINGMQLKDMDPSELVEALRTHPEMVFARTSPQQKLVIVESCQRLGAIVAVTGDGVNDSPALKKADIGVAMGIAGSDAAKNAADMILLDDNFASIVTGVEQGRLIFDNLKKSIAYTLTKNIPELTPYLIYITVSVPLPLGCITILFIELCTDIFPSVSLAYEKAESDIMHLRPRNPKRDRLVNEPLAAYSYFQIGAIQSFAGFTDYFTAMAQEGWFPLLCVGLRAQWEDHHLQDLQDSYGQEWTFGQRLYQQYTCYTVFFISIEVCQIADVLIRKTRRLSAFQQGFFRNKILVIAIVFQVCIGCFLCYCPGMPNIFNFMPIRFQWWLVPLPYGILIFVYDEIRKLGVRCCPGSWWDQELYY", "sequence (P51164 whole entry partner)": "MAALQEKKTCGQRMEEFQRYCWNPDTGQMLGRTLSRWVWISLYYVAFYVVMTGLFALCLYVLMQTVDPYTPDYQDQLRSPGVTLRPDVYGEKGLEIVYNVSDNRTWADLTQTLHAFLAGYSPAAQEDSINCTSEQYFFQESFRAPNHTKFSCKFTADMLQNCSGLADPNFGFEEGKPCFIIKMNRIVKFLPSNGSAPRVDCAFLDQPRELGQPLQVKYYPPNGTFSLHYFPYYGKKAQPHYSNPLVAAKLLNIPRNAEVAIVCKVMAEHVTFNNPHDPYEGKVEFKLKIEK", "settings": "subsequent studies; cited from earlier work"}, "H^+,K^+-ATPase": {"test_system": "H^+,K^+-ATPase", "settings": "rats, seven days low, normal or high aldosterone levels, normal and high K+ diets; cited from earlier work"}, "HKa2 mRNA": {"test_system": "HKa2 mRNA", "settings": "progesterone alone (Elabida et al., 2011); cited from earlier work"}}, "data": [{"molecule": "Cc1nc2c(OCc3ccccc3)cccn2c1CC#N", "note": "[Schering 28080]", "values": [{"measurement": "H+,K+-ATPase isoform inhibited", "setting": "[1]", "value": "only inhibit the HKα1-containing H^+,K^+-ATPases"}]}, {"molecule": "C[C@]12CCC(=O)C=C1CC[C@@H]1[C@@H]2[C@@H](O)C[C@]2(C=O)[C@@H](C(=O)CO)CC[C@@H]12", "note": "[aldosterone]", "values": [{"measurement": "effect on Schering 28080-sensitive ATPase activity", "setting": "H^+,K^+-ATPase", "value": "did not significantly affect"}]}, {"molecule": "CC(=O)[C@H]1CC[C@H]2[C@@H]3CCC4=CC(=O)CC[C@]4(C)[C@H]3CC[C@]12C", "note": "[progesterone]", "values": [{"measurement": "effect on renal HKa2 mRNA expression", "setting": "HKa2 mRNA", "value": "stimulated"}]}]}
